The source of these data is patent US12059422B2 (MEI Pharma, Inc., priority 2011, dated 2024).

Structures are written as SMILES.

The target of one experiment is T1, PI3K beta (Homo sapiens, UniProt P42338).
T1 construct: purchased Millipore, Billerica, MA, USA
The experiment can be described thus: Luciferase-based luminescence assay (ADP Glo), PI3K beta enzymatic activity. The class given is biochemical. The settings on record: for IC50: inhibition of enzymatic activity, ADP Glo, 25 μM ATP, read-out: IC50 p110β; for α/β ratio: ratio of enzymatic IC50 values, Table 1. The method, boiled down:
(§1)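 Final enzyme 4.8 nM PI3K beta or 7.6 nM PI3K gamma, with 50 μM PIP2 and 25 μM ATP, 1 h in HEPES pH 7.5 buffer with MgCl2, EGTA, NaCl, CHAPS and DTT. ADP formed measured by ADP-Glo luminescence; IC50 from 10-point curve fits.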
On the technique in general: ADP-Glo turns the ADP formed in a reaction into a luminescent signal.

The next experiment deals with T2, PI3K gamma (Homo sapiens, UniProt P48736).
T2 construct: purchased Invitrogen Corp., Carlsbad, CA, USA
T2 sequence (P48736 whole entry, species assumed): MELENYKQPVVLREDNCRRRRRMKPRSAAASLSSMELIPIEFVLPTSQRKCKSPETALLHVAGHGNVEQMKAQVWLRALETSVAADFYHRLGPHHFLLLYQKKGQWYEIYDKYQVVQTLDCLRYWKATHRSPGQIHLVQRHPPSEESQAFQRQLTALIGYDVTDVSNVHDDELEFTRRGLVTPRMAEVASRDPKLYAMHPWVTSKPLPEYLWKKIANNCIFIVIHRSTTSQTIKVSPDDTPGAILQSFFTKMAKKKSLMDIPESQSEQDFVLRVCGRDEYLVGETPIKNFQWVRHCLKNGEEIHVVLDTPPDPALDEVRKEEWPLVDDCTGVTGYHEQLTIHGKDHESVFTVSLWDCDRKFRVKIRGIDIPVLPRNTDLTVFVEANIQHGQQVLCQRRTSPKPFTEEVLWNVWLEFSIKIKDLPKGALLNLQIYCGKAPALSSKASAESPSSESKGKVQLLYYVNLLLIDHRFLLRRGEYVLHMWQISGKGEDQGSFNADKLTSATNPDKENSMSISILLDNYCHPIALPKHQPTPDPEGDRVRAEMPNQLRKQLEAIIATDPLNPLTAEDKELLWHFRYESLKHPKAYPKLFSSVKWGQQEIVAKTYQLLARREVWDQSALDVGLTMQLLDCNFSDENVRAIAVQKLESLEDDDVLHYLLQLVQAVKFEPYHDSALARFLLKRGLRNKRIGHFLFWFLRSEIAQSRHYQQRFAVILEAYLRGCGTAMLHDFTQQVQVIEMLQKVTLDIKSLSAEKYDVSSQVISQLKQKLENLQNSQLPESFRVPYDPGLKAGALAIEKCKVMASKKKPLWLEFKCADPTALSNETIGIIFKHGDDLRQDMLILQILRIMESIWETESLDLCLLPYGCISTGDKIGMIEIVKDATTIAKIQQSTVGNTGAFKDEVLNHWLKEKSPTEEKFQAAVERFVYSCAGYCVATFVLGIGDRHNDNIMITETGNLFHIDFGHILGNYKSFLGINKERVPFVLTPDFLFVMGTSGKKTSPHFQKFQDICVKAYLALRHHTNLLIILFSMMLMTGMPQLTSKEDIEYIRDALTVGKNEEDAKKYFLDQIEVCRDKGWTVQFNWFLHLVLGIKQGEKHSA
The experiment can be described thus: Luciferase-based luminescence assay (ADP Glo), PI3K gamma enzymatic activity. It counts as biochemical. The following applies: inhibition of enzymatic activity, 25 μM ATP, read-out: IC50 p110γ. The method, boiled down:
as §1

The next experiment addresses mTOR (Homo sapiens, UniProt P42345). The experiment can be described thus: mTOR inhibition (Table 1). The class given is biochemical. The following applies: Table 1, no method described.
In a further experiment the target is T3, PI3Kβ (Homo sapiens, UniProt P42338).
T3 construct: endogenous in cells; host or cells: PC-3 (ATCC #CRL-1435)
T3 sequence (P42338 whole entry): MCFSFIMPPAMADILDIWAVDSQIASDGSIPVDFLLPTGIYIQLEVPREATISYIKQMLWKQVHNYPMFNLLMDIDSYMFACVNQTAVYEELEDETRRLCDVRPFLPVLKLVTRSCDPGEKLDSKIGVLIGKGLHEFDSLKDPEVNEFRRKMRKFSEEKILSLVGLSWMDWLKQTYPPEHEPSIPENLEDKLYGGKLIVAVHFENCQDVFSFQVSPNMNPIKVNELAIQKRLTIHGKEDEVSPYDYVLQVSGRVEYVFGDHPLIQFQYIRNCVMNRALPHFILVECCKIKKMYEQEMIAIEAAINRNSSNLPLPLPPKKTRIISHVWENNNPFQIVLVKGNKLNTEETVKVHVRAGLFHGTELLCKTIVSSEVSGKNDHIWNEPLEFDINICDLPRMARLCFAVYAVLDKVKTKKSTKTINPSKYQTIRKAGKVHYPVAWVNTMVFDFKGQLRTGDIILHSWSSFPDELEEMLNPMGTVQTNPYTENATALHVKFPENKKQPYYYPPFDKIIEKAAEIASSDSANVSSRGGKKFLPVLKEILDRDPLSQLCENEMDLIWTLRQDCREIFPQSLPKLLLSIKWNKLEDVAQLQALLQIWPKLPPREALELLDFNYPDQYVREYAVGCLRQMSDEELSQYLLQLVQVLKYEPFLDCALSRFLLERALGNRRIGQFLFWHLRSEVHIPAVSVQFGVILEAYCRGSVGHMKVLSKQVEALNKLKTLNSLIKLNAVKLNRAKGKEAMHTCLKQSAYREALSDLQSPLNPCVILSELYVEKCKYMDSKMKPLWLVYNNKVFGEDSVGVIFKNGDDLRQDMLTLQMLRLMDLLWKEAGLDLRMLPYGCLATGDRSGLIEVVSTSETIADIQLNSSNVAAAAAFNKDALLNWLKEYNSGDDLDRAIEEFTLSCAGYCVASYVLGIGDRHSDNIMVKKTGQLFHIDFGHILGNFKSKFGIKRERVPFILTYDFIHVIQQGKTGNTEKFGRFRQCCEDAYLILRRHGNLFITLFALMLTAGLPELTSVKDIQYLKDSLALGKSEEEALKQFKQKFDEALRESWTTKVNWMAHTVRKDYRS
T3 sequence (P27986 whole entry partner): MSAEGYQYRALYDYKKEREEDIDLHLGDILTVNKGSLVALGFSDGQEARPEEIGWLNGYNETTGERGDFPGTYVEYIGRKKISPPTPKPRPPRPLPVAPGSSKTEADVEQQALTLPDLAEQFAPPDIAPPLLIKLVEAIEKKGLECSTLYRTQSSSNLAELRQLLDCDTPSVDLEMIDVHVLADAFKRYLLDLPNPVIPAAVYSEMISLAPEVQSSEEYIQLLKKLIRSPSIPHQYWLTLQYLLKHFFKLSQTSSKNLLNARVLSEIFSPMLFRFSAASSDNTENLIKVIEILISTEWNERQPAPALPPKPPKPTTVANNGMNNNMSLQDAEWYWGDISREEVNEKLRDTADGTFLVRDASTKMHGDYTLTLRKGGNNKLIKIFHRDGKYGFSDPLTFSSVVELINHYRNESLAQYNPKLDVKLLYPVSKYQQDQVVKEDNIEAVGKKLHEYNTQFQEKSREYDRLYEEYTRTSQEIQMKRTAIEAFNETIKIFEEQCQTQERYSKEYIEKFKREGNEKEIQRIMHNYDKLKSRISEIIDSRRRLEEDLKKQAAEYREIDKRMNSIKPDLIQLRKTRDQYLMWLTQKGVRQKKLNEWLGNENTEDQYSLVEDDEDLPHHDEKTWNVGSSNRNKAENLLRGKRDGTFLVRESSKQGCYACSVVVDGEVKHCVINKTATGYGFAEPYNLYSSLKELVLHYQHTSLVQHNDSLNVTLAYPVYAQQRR
The experiment can be described thus: ELISA assay for PI3Kβ: in-cell ELISA, phosphorylation of AKT (Ser473) in PC-3 cells. It counts as cell-based. The settings on record: for IC50: cellular, pAKT (Ser473), PC-3 cells, LPA stimulation, read-out: IC50 p110β; for α/β ratio: ratio of cellular IC50 values, Table 2. How it is done: Cellular PI3Kβ activity was determined by measuring the phosphorylation of AKT (Ser473) using an in-cell ELISA assay. PC-3 (prostate carcinoma) cells were obtained from ATCC (ATCC #CRL-1435). Growth medium was DMEM (CellGro #CV-10-013-CV) supplemented with 10% fetal bovine serum, 100 IU/mL penicillin, 100 μg/mL streptomycin, and 1×MEM non-essential amino acids. Phosphate buffered saline (PBS) contained 2.7 M NaCl, 54 mM KCl, 86 mM […] (dibasic, anhydrous), 28 mM […] (monobasic, anhydrous), pH 7.2, 10× stimulation mixture contained 50 μM LPA (Cayman #62215) diluted in serum-free DMEM medium (CellGro #CV-10-013-CV). Compounds for testing were dissolved and serially diluted in 100% DMSO (total of 10 concentrations), then diluted in serum-free DMEM to 2× final assay concentration. 2× fixative solution contained 8% formaldehyde (Amresco #M134) diluted in PBS. Permeabilization solution contained PBS supplemented with 0.1% Triton X-100. Blocking buffer was obtained from LiCor (LiCor #927-40000). Wash buffer contained PBS supplemented with 0.1% Tween-20. Primary antibody solution was rabbit anti-pAKT^S473 monoclonal antibody (Cell Signaling #4060) and mouse anti-total S6 (Santa Cruz #74459) diluted 1:500 and 1:2000, respectively, in blocking buffer. Secondary antibody solution was IRDye 800CW-conjugated goat anti-rabbit IgG (LiCor #926-32211) and IRDye 680LT-conjugated goat anti-mouse IgG (LiCor #926-68020) diluted 1:2000 and 1:1000, respectively, in blocking buffer.
PC-3 cells were subcultured in growth medium and seeded into flat, clear bottom, 96-well plates (Corning #3904) at 16000 cells/well, then incubated overnight in a 37° C., 5% CO2 incubator. Growth medium in plates was replaced with 100 μL/well serum-free DMEM and incubated overnight in a 37° C., 5% CO2 incubator. 50 μL/well of fresh serum-free DMEM was added to plates. Compound treatment was performed by adding 50 μL/well of 2× compound mixture to plates and incubating for 2 hrs at 37° C., 5% CO2, after which 11 μL/well of 10× stimulation mixture was added and plates were incubated for 10 min at 37° C., 5% CO2. Fixation was performed by adding 110 μL/well of 2× fixative solution to plates and incubating for 20 min at room temperature. Permeabilization was performed by replacing fixation solution with 150 μL/well permeabilization solution and incubating for 10 min at room temperature. Permeabilization was repeated (for a total of 2 times). Permeabilization solution was replaced with 100 μL/well blocking buffer and plates were incubated for 1 hr at room temperature, after which 100 μL/well of primary antibody solution was added and plates were incubated overnight at 4° C. Plates were washed with wash buffer, after which 100 μL/well of secondary antibody solution was added to the plates and incubated in the dark for 1 hr at room temperature. Plates were washed with wash buffer, followed by awash with PBS. After completely removing PBS, plates were scanned on the Licor Odyssey Imager. Images quantified using Licor Odyssey application software. IC50 values were determined by curve fitting using a Collaborative Drug Discovery database (www.collaborativedrug.com).

T1 sequence (P42338 whole entry, species assumed): as the sequence (P42338 whole entry) above
T1 sequence (P27986 whole entry partner, species assumed): as the sequence (P27986 whole entry partner) above

Consider `CC(C)(Cc1ccccc1-c1cncnc1)Nc1nc(N2CCOCC2)nc(-n2c(C(F)F)nc3ccccc32)n1` [Compound A63, 4-(2-(difluoromethyl)-1H-benzo[d]imidazol-1-yl)-N-(2-methyl-1-(2-(pyrimidin-5-yl)phenyl)propan-2-yl)-6-morpholino-1,3,5-triazin-2-amine], for which the concentration for half-maximal inhibition (IC50) (as a rule, the midpoint of a concentration-inhibition curve) was not above 100 nM at PI3K beta, 200 to 500 nM at PI3K gamma, more than 500 nM against mTOR and not above 100 nM on PI3Kβ. Further, the figures for the α/β ratio entry at PI3K beta and on PI3Kβ were “D’” and “A’”, respectively.
On to `CN1CCN(c2cc(-c3ccccc3CC(C)(C)Nc3nc(N4CCOCC4)nc(-n4c(C(F)F)nc5ccccc54)n3)ccn2)CC1` [Compound A64, 4-(2-(difluoromethyl)-1H-benzo[d]imidazol-1-yl)-N-(2-methyl-1-(2-(2-(4-methylpiperazin-1-yl)pyridin-4-yl)phenyl)propan-2-yl)-6-morpholino-1,3,5-triazin-2-amine], for which the IC50 at PI3K beta is not above 100 nM; on PI3K gamma, more than 500 nM; on mTOR, more than 500 nM; on PI3Kβ, not above 100 nM. Also, the α/β ratio result on PI3K beta and on PI3Kβ was “A’” each time.
In the case of `CC(C)(Cc1ccccc1-c1cccc(CN2CCOCC2)c1)Nc1nc(N2CCOCC2)nc(-n2c(C(F)F)nc3ccccc32)n1` [Compound A65, 4-(2-(difluoromethyl)-1H-benzo[d]imidazol-1-yl)-N-(2-methyl-1-(3′-(morpholinomethyl)biphenyl-2-yl)propan-2-yl)-6-morpholino-1,3,5-triazin-2-amine], the IC50 on PI3K beta was not above 100 nM; at PI3K gamma it was 100 to 200 nM; at mTOR it was more than 500 nM; on PI3Kβ, not above 100 nM. For the same compound, the α/β ratio entry on PI3K beta and at PI3Kβ was “A’” in each case.
For `COc1cccc(-c2ccccc2CC(C)(C)Nc2nc(N3CCOCC3)nc(-n3c(C(F)F)nc4ccccc43)n2)c1` [Compound A66, 4-(2-(difluoromethyl)-1H-benzo[d]imidazol-1-yl)-N-(1-(3′-methoxybiphenyl-2-yl)-2-methylpropan-2-yl)-6-morpholino-1,3,5-triazin-2-amine], the IC50 is more than 500 nM at PI3K beta, more than 500 nM on PI3K gamma, more than 500 nM against mTOR and 100 to 200 nM at PI3Kβ. The α/β ratio entry at PI3K beta is listed as “D’”; on PI3Kβ, “A’”.
Turning to `COc1ccc(-c2ccccc2CC(C)(C)Nc2nc(N3CCOCC3)nc(-n3c(C(F)F)nc4ccccc43)n2)cc1` [Compound A67, 4-(2-(difluoromethyl)-1H-benzo[d]imidazol-1-yl)-N-(1-(4′-methoxybiphenyl-2-yl)-2-methylpropan-2-yl)-6-morpholino-1,3,5-triazin-2-amine], the IC50 was 200 to 500 nM at PI3K beta, more than 500 nM on PI3K gamma, more than 500 nM on mTOR and 200 to 500 nM on PI3Kβ. Moreover, the values for the α/β ratio entry on PI3K beta and on PI3Kβ were “D’” and “A’”, respectively.
Take `CC(C)(Cc1ccccc1C1CCNCC1)Nc1nc(N2CCOCC2)nc(-n2c(C(F)F)nc3ccccc32)n1` [Compound A68, 4-(2-(difluoromethyl)-1H-benzo[d]imidazol-1-yl)-N-(2-methyl-1-(2-(piperidin-4-yl)phenyl)propan-2-yl)-6-morpholino-1,3,5-triazin-2-amine]: the half-maximal inhibitory concentration (IC50) at PI3K beta was more than 500 nM; at PI3K gamma it was more than 500 nM; on mTOR, more than 500 nM; on PI3Kβ it was not above 100 nM. The α/β ratio result at PI3K beta is given as “D’”; on PI3Kβ it was “A’”.
As for `CCN1CCC(c2ccccc2CC(C)(C)Nc2nc(N3CCOCC3)nc(-n3c(C(F)F)nc4ccccc43)n2)CC1` [Compound A70, 4-(2-(difluoromethyl)-1H-benzo[d]imidazol-1-yl)-N-(1-(2-(1-ethylpiperidin-4-yl)phenyl)-2-methylpropan-2-yl)-6-morpholino-1,3,5-triazin-2-amine], the IC50 was more than 500 nM on PI3K beta, more than 500 nM on PI3K gamma, more than 500 nM against mTOR and not above 100 nM at PI3Kβ. Besides, the α/β ratio result on PI3K beta was “C’”; at PI3Kβ, “A’”.
On to `CC(C)N1CCC(c2ccccc2CC(C)(C)Nc2nc(N3CCOCC3)nc(-n3c(C(F)F)nc4ccccc43)n2)CC1` [Compound A71, 4-(2-(difluoromethyl)-1H-benzo[d]imidazol-1-yl)-N-(1-(2-(1-isopropylpiperidin-4-yl)phenyl)-2-methylpropan-2-yl)-6-morpholino-1,3,5-triazin-2-amine], for which the IC50 on PI3K beta was more than 500 nM; on PI3K gamma, more than 500 nM; at mTOR, more than 500 nM; on PI3Kβ it was not above 100 nM. The α/β ratio result at PI3K beta was “D’”; on PI3Kβ it was “A’”.
Turning to `CC(=O)N1CCC(c2ccccc2CC(C)(C)Nc2nc(N3CCOCC3)nc(-n3c(C(F)F)nc4ccccc43)n2)CC1` [Compound A72, 4-(2-(difluoromethyl)-1H-benzo[d]imidazol-1-yl)-N-(2-methyl-1-(2-(1-acetylpiperidin-4-yl)phenyl)propan-2-yl)-6-morpholino-1,3,5-triazin-2-amine], the IC50 on PI3K beta was not above 100 nM; on PI3K gamma, not above 100 nM; on mTOR it was more than 500 nM; on PI3Kβ, not above 100 nM. Moreover, the α/β ratio result at PI3K beta and at PI3Kβ was “A’” in each case.
As to `CC(C)(Cc1ccccc1C1CCN(S(C)(=O)=O)CC1)Nc1nc(N2CCOCC2)nc(-n2c(C(F)F)nc3ccccc32)n1` [Compound A73, 4-(2-(difluoromethyl)-1H-benzo[d]imidazol-1-yl)-N-(2-methyl-1-(2-(1-(methylsulfonyl)piperidin-4-yl)phenyl)propan-2-yl)-6-morpholino-1,3,5-triazin-2-amine], the IC50 at PI3K beta is not above 100 nM; on PI3K gamma, 100 to 200 nM; against mTOR, more than 500 nM; on PI3Kβ, not above 100 nM. Moreover, the α/β ratio entry on PI3K beta and on PI3Kβ was “A’” each time.
Consider `CC(C)(Cc1ccccc1C1CCNC1)Nc1nc(N2CCOCC2)nc(-n2c(C(F)F)nc3ccccc32)n1` (stereo not drawn) [Compound A74, 4-(2-(difluoromethyl)-1H-benzo[d]imidazol-1-yl)-N-(2-methyl-1-(2-(pyrrolidin-3-yl)phenyl)propan-2-yl)-6-morpholino-1,3,5-triazin-2-amine], for which the half-maximal inhibitory concentration (IC50) on PI3K beta was more than 500 nM; on PI3K gamma, more than 500 nM; against mTOR, more than 500 nM; on PI3Kβ, not above 100 nM. Moreover, the α/β ratio result was “D’” on PI3K beta and “A’” on PI3Kβ.
In the case of `CN(C)CCCc1ccccc1CC(C)(C)Nc1nc(N2CCOCC2)nc(-n2c(C(F)F)nc3ccccc32)n1` [Compound A76, 4-(2-(difluoromethyl)-1H-benzo[d]imidazol-1-yl)-N-(1-(2-(3-(dimethylamino)propyl)phenyl)-2-methylpropan-2-yl)-6-morpholino-1,3,5-triazin-2-amine], the half-inhibitory concentration (IC50) on PI3K beta is 200 to 500 nM; at PI3K gamma, more than 500 nM; against mTOR it was more than 500 nM; at PI3Kβ, not above 100 nM. For the same compound, the α/β ratio entry was “C’” at PI3K beta and “A’” on PI3Kβ.
